“Also recorded” adds a separate entry of the source.
Test system: 20S proteasome
Test: 20S proteasome from BALB.SV cells in assay buffer
Conditions: 37C, up to 24 h

With MDIGAYPHFMPTNLAGDPY the fragment found was “YPHFMPTNL, major; also recorded: YPH- FMPTNL(ox)”.
